Counter-ions that a name gives are not always drawn. Like-named read-outs stand apart in the source and are kept apart here.
System: SARS-CoV-2 (USA-WA1/2020) in Calu-3 cells
Assay type: cell-based
[1] = high dose (10 µM), Calu-3, 48 h
[2] = low dose (100 nM), Calu-3, 48 h

## CNC(=O)c1cc(Oc2ccc(NC(=O)c3cccc(C(F)(F)F)c3)cc2)ccn1 [SKLB610]
[1]
  dsRNA signal, AU High: 126.4 AU
[2]
  dsRNA signal, AU Low: 8430.0 AU

## N#C/C(=C(/N)Sc1ccc(N)cc1)c1ccccc1C(F)(F)F [SL-327]
[1]
  dsRNA signal, AU High: 10911.9 AU
[2]
  dsRNA signal, AU Low: 24198.7 AU

## CC(C)NC(=O)COc1cccc(-c2nc(Nc3ccc4[nH]ncc4c3)c3ccccc3n2)c1 [SLx-2119]
[1]
  dsRNA signal, AU High: 20785.5 AU
[2]
  dsRNA signal, AU Low: 59494.3 AU

## O=C1NC(=O)/C(=C/c2cccc(C(F)(F)F)c2)S1 [SMI-4a]
[1]
  dsRNA signal, AU High: 0.0 AU
[2]
  dsRNA signal, AU Low: 12244.4 AU

## O=C(Nc1cccc(Cl)c1)Nc1ncc(CCNc2ncnc3ccsc23)s1 [SNS-314 Mesylate]
[1]
  dsRNA signal, AU High: 5716.5 AU
[2]
  dsRNA signal, AU Low: 33317.4 AU

## O=C(Nc1cc(C(F)(F)F)ccc1N1CCCCC1)c1ccncc1 [SRPIN340]
[1]
  dsRNA signal, AU High: 38969.9 AU
[2]
  dsRNA signal, AU Low: 6071.8 AU

## COc1c(C)c(C(=O)c2ccc(N)c(C(=O)[O-])c2)n2ccccc12.[Na+] [SSR128129E]
[1]
  dsRNA signal, AU High: 4736.0 AU
[2]
  dsRNA signal, AU Low: 27624.5 AU

## O=S(=O)(N=Cc1c(O)ccc2ccccc12)c1cccs1 [STF 083010]
[1]
  dsRNA signal, AU High: 54363.2 AU
[2]
  dsRNA signal, AU Low: 46405.9 AU

## Cc1cc(C)c(/C=C2\C(=O)Nc3ccccc32)[nH]1 [SU5416]
[1]
  dsRNA signal, AU High: 39551.1 AU
[2]
  dsRNA signal, AU Low: 20455.1 AU

## O=C(/C=C/c1ccccc1)NC(NC(=S)Nc1ccc(Cl)cc1)C(Cl)(Cl)Cl (stereo not shown) [Sal 003]
[1]
  dsRNA signal, AU High: 58234.6 AU
[2]
  dsRNA signal, AU Low: 61292.8 AU

## OC[C@H]1O[C@@H](OCCc2ccc(O)cc2)[C@H](O)[C@@H](O)[C@@H]1O [Salidroside]
[1]
  dsRNA signal, AU High: 19295.0 AU
[2]
  dsRNA signal, AU Low: 56220.3 AU

## C[n+]1cc2c3c(ccc2c2ccc4cc5c(cc4c21)OCO5)OCO3 [Sanguinarine chloride]
[1]
  dsRNA signal, AU High: 0.0 AU
[2]
  dsRNA signal, AU Low: 15548.2 AU

## C[n+]1cc2c3c(ccc2c2ccc4cc5c(cc4c21)OCO5)OCO3 [Sanguinarine]
[1]
  dsRNA signal, AU High: 0.0 AU
[2]
  dsRNA signal, AU Low: 895.9 AU

## O=C(O)[C@H]1O[C@@H](Oc2cc3oc(-c4ccc(O)cc4)cc(=O)c3c(O)c2O)[C@H](O)[C@@H](O)[C@@H]1O [Scutellarin]
[1]
  dsRNA signal, AU High: 1769.9 AU
[2]
  dsRNA signal, AU Low: 52840.4 AU

## N#Cc1ccc2ncnc(NCCc3ccccc3)c2c1 [Senexin A]
[1]
  dsRNA signal, AU High: 30520.6 AU
[2]
  dsRNA signal, AU Low: 31796.6 AU

## O=C(O)c1cc(O)c2c(c1)[C@@H]([C@H]1c3cc(C(=O)O)cc(O)c3C(=O)c3c(O[C@@H]4O[C@H](CO)[C@@H](O)[C@H](O)[C@H]4O)cccc31)c1cccc(O[C@@H]3O[C@H](CO)[C@@H](O)[C@H](O)[C@H]3O)c1C2=O [Sennoside B]
[1]
  dsRNA signal, AU High: 3953.3 AU
[2]
  dsRNA signal, AU Low: 3310.7 AU

## CC(C)=CC[C@@H](O)C1=CC(=O)c2c(O)ccc(O)c2C1=O [Shikonin]
[1]
  dsRNA signal, AU High: 54262.1 AU
[2]
  dsRNA signal, AU Low: 4009.3 AU

## CN1CCN(c2nc(C3=C(c4c[nH]c5ccccc45)C(=O)NC3=O)c3ccccc3n2)CC1 [Sotrastaurin (AEB071)]
[1]
  dsRNA signal, AU High: 6965.2 AU
[2]
  dsRNA signal, AU Low: 40818.2 AU

## COc1cc(N2CCC(N3CCN(C)CC3)CC2)ccc1Nc1ncc(Cl)c(Nc2ccccc2S(=O)(=O)C(C)C)n1 [TAE684 (NVP-TAE684)]
[1]
  dsRNA signal, AU High: 41419.4 AU
[2]
  dsRNA signal, AU Low: 4182.3 AU

## COc1cc(C(=O)NC2CCN(C)CC2)c(F)cc1Nc1ncc2c(n1)N(C1CCCC1)CC(F)(F)C(=O)N2C [TAK960]
[1]
  dsRNA signal, AU High: 9929.6 AU
[2]
  dsRNA signal, AU Low: 56355.2 AU

## N#Cc1c(Oc2ccc(F)c(NC(=O)Cc3cccc(C(F)(F)F)c3)c2)ccc2nc(NC(=O)C3CC3)sc12 [TAK-632]
[1]
  dsRNA signal, AU High: 12667.4 AU
[2]
  dsRNA signal, AU Low: 8796.8 AU

## CCc1nc(-c2cccc(C)c2)c(-c2ccnc(NC(=O)c3ccccc3)c2)s1 [TAK-715]
[1]
  dsRNA signal, AU High: 42569.8 AU
[2]
  dsRNA signal, AU Low: 29513.1 AU

## CCS(=O)(=O)c1cccc(-c2cc(C(=O)NC3CCN(C)CC3)c(C)c3[nH]c4ncc(C)cc4c23)c1 [TAK-901]
[1]
  dsRNA signal, AU High: 42486.6 AU
[2]
  dsRNA signal, AU Low: 61332.6 AU

## Brc1c(Br)c(Br)c2n[nH]nc2c1Br [TBB]
[1]
  dsRNA signal, AU High: 3323.3 AU
[2]
  dsRNA signal, AU Low: 16520.0 AU

## COc1ccc(C(=O)Nc2sc3c(c2C(N)=O)CCCC3)cc1OC [TCS 359]
[1]
  dsRNA signal, AU High: 5896.0 AU
[2]
  dsRNA signal, AU Low: 63380.8 AU

## N#Cc1c(NC(=O)c2cccc3ccccc23)sc2c1CCCC2 [TCS JNK 5a]
[1]
  dsRNA signal, AU High: 1144.9 AU
[2]
  dsRNA signal, AU Low: 17159.4 AU

## N#Cc1c(-c2ccccc2)cc(-c2cc(Br)ccc2O)[nH]c1=O [TCS PIM-1 1]
[1]
  dsRNA signal, AU High: 1935.2 AU
[2]
  dsRNA signal, AU Low: 16463.0 AU

## O=C1NC(=O)/C(=C/c2cccc(C(F)(F)F)c2)S1 [TCS-PIM-1-4a]
[1]
  dsRNA signal, AU High: 1917.5 AU
[2]
  dsRNA signal, AU Low: 12250.9 AU

## Cn1sc(=O)n(Cc2ccccc2)c1=O [TDZD-8]
[1]
  dsRNA signal, AU High: 7580.3 AU
[2]
  dsRNA signal, AU Low: 26092.4 AU

## CCN1/C(=C/C(C)=O)Sc2ccc(OC)cc21 [TG003]
[1]
  dsRNA signal, AU High: 1126.7 AU
[2]
  dsRNA signal, AU Low: 61445.9 AU

## Nc1nc(N)c2nc(-c3cccc(O)c3)c(-c3cccc(O)c3)nc2n1 [TG100-115]
[1]
  dsRNA signal, AU High: 401.6 AU
[2]
  dsRNA signal, AU Low: 17405.4 AU

## Cc1ccccc1CN1C(=O)C2=C(CCN(Cc3ccccc3)C2)N2CCN=C12 [TIC10]
[1]
  dsRNA signal, AU High: 0.0 AU
[2]
  dsRNA signal, AU Low: 1481.6 AU

## Cc1[nH]c(/C=C2\C(=O)Nc3ccccc32)c(C)c1CCC(=O)O [TSU-68 (SU6668,Orantinib)]
[1]
  dsRNA signal, AU High: 4841.4 AU
[2]
  dsRNA signal, AU Low: 21696.8 AU

## Nc1cccc(-c2cc3c(Oc4cccc(O)c4)ncnc3[nH]2)c1 [TWS119]
[1]
  dsRNA signal, AU High: 48959.2 AU
[2]
  dsRNA signal, AU Low: 29417.1 AU

## COc1cc2c(N3CCN(C(=O)Nc4ccc(OC(C)C)cc4)CC3)ncnc2cc1OCCCN1CCCCC1.Cl [Tandutinib (MLN518) HCl]
[1]
  dsRNA signal, AU High: 42444.4 AU
[2]
  dsRNA signal, AU Low: 13615.8 AU

## O=C(NCc1ccccc1)c1csc(Nc2ccncn2)n1 [Thiazovivin]
[1]
  dsRNA signal, AU High: 2364.1 AU
[2]
  dsRNA signal, AU Low: 26827.3 AU

## O=c1sn(-c2cccc3ccccc23)c(=O)n1Cc1ccccc1 [Tideglusib]
[1]
  dsRNA signal, AU High: 352.7 AU
[2]
  dsRNA signal, AU Low: 1603.7 AU

## COc1ccc2cc(-c3nc(-c4ccc([S+](C)[O-])cc4)[nH]c3-c3ccncc3)ccc2c1 (stereo not shown) [Tie2 kinase inhibitor]
[1]
  dsRNA signal, AU High: 4787.9 AU
[2]
  dsRNA signal, AU Low: 16594.7 AU

## COc1cc2nccc(Oc3ccc(NC(=O)Nc4cc(C)on4)c(Cl)c3)c2cc1OC [Tivozanib (AV-951)]
[1]
  dsRNA signal, AU High: 40142.9 AU
[2]
  dsRNA signal, AU Low: 36133.0 AU

## C[C@@H]1CCN(C(=O)CC#N)C[C@@H]1N(C)c1ncnc2[nH]ccc12.O=C(O)CC(O)(CC(=O)O)C(=O)O [Tofacitinib (CP-690550) Citrate]
[1]
  dsRNA signal, AU High: 57107.2 AU
[2]
  dsRNA signal, AU Low: 61115.5 AU

## C[C@@H]1CCN(C(=O)CC#N)C[C@@H]1N(C)c1ncnc2[nH]ccc12 [Tofacitinib (CP-690550,Tasocitinib)]
[1]
  dsRNA signal, AU High: 6571.2 AU
[2]
  dsRNA signal, AU Low: 4801.5 AU

## CCC(=O)N1CCN(c2ccc(-n3c(=O)ccc4cnc5ccc(-c6cnc7ccccc7c6)cc5c43)cc2C(F)(F)F)CC1 [Torin 1]
[1]
  dsRNA signal, AU High: 1083.7 AU
[2]
  dsRNA signal, AU Low: 14896.3 AU

## CC(=O)Nc1cccc(-n2c(=O)n(C3CC3)c(=O)c3c(Nc4ccc(I)cc4F)n(C)c(=O)c(C)c32)c1.C[S+](C)[O-] [Trametinib DMSO solvate]
  dsRNA signal, AU High: 10918.5
  dsRNA signal, AU Low: 24279.8

## NC(=S)N/N=C/c1ncccc1N [Triapine]
[1]
  dsRNA signal, AU High: 0.0 AU
[2]
  dsRNA signal, AU Low: 17637.1 AU

## CC(C)(C)c1cc(C=C(C#N)C#N)cc(C(C)(C)C)c1O [Tyrphostin 9]
[1]
  dsRNA signal, AU High: 58.0 AU
[2]
  dsRNA signal, AU Low: 17328.1 AU

## CC(C)(C)c1cc(/C=C(\C#N)C(N)=S)cc(C(C)(C)C)c1O [Tyrphostin AG 879]
[1]
  dsRNA signal, AU High: 54.0 AU
[2]
  dsRNA signal, AU Low: 6760.3 AU

## COc1cc2ncc(-c3ccccc3)nc2cc1OC [Tyrphostin AG 1296]
[1]
  dsRNA signal, AU High: 2647.7 AU
[2]
  dsRNA signal, AU Low: 18881.3 AU

## CCCCNc1ncc2c(-c3ccc(CN4CCN(C)CC4)cc3)cn([C@H]3CC[C@H](O)CC3)c2n1 [UNC2025]
[1]
  dsRNA signal, AU High: 55553.7 AU
[2]
  dsRNA signal, AU Low: 67297.4 AU

## CCCCNc1ncc(C(=O)NCc2ccc(-n3ccnc3)cc2)c(NC2CCC(O)CC2)n1 (stereo not shown) [UNC2881]
[1]
  dsRNA signal, AU High: 446.4 AU
[2]
  dsRNA signal, AU Low: 42094.2 AU

## CN1CCN(Cc2ccc(-c3cnc4[nH]cc(-c5ccc6[nH]ccc6c5)c4c3)cc2)CC1 [URMC-099]
[1]
  dsRNA signal, AU High: 20784.2 AU
[2]
  dsRNA signal, AU Low: 7905.7 AU
